Results taken from article PMC6366420, “Design and synthesis of 4-piperazinyl quinoline derived urea/thioureas for anti-breast cancer activity by a hybrid pharmacophore approach” (Journal of Enzyme Inhibition and Medicinal Chemistry, 2019).
Read-outs that look alike come from different tables or passages of the source.

What was measured:
MCF7 cells = test: Mitochondrial (MitoTracker) and lysosomal (LysoTracker) staining of MCF7 cells; format: cell-based, human
Description: (§1) Lysosomal and AO staining were carried out as described previously. Mitochondrial staining with MitoTracker was carried out as described previously. Briefly, cells were plated on a poly-D-lysine pre-coated 1.8-cm sterile glass coverslip that had been placed in a well of a 6-well clustered dish. Cells were then incubated with 50 nM MitoTracker Red (ThermoFisher) for 30 min in a cell culture incubator. Plasma membrane staining was carried out with lipid-specific CellMask (Molecular probes, Life Technologies), according to the manufacturer’s instruction. For actin staining, cells fixed with 4% formaldehyde were incubated with phalloidin conjugated with Fitc (green) for 30 min. For nuclear staining, cells were incubated with 5 µM of DRAQ5 (blue) for 5 min.
It should be noted that these abnormalities could occur if the membranes of these organelles are compromised. Thus, the molecular target of compound 23 is likely a common element found in the membranes of cytoplasm, mitochondria and lysosomes, but not in the nuclear membrane as it is not compromised in the presence of compound 23 (Figures 4–6).
Figure 5. Mitochondrial membrane may be compromised in the presence of compound 23. […] (b) Mitochondria are aggregated and disorganized in the presence of compound 23. MCF7 mitochondria and nuclei were stained with MitoTracker and DRAQ5, respectively, as descried in Materials and methods.
Figure 6. […]

MCF7 breast cancer cells = test: Plasma membrane integrity staining (EtBr, AO, CellMask) of MCF7 cells; format: cell-based, human
Description: as §1
However, it is currently unclear how lipid molecules are found throughout the entire cytoplasm. […] In addition, cells treated with compound 23 are often enlarged and flattened, and contained multi-nuclei. In addition, many small vacuoles are found in the cytoplasm of these cells (Figure 4(a–c)). All of these phenomena are likely leading to eventual cancer cell demise in the presence of compound 23.
Figure 4. […] (a) MCF7 cell morphology changes in the presence of compound 23. MCF7 cells were sham treated or treated with compound 23 for 48 h, followed by staining with either EtBr. […]

MDA-MB468 = test: SRB antiproliferative assay, MDA-MB468; format: cell-based, human; details: SRB, 48 h incubation, MDA-MB468 breast cancer cells, read-out: GI50 MDA-MB468
Description: (§2) The human breast cancer cell lines MDA-MB468, MDA-MB231 and MCF-7 were purchased from ATCC and maintained in RPMI 1640 medium supplemented with 10% fetal bovine serum (Hyclone, Logan UT) and 2 mM L-glutamine. MCF10A and 184B5 immortalised breast cells were purchased from ATCC and maintained in mammary epithelial basal medium supplemented with an MEGM mammary epithelial singlequot kit (Cambrex). Cells were grown at 37 °C with 5% CO2, 95% air under the humidified conditions. Cell line authentication was carried out by Genetica DNA Laboratories (Burlington, NC) using a short tandem repeat profiling method (March 2015; July 2015; September 2016).
(§3) Cell cytotoxic effects were determined by a SRB-based protocol[2]^,[25].
(§4) The newly synthesised 4-piperazinylquinoline compounds (5–30) were evaluated for their antiproliferative effects using three breast cancer cell lines, for which the compounds were diluted to achieve seven different concentrations ranging from […]. Followed by 48 h incubation with the compound, cells were treated with sulforhodamine B (SRB) to measure their growth/viability (% of the untreated control) by spectrophotometer. The total cellular macromolecules levels known to accurately reflect by UV reading of SRB staining. […] The reference compounds CQ and cisplatin were included for the comparison.

MCF7 = test: SRB antiproliferative assay, MCF7; format: cell-based, human; details: Homo sapiens; SRB, 48 h incubation, MCF7 breast cancer cells; read-out: GI50 MCF7
Description: as §2, §3, §4

MCF10A = test: SRB antiproliferative assay, MCF10A non-cancer breast cells; format: cell-based, human; details: Homo sapiens, MCF-10A; SRB, 48 h incubation, MCF10A non-cancer immortalised breast cells; read-out: GI50 MCF10A
Description: as §2, §3, §4
(§5) We further assessed their antiproliferative effects on two non-cancer immortalised cell lines (184B5 and MCF10A). […] The antiproliferative effects of compound 23 on cancer cells are thus 7-fold (MDA-MB468 vs MCF10A) to 11-fold (MDA-MB231 vs 184B5) higher than matching non-cancer breast cells, which may indicate that compound 23 could potentially be safer than other compounds. Therefore, we examined it further to gain insights into its molecular mechanism of action.

184B5 = test: SRB antiproliferative assay, 184B5 non-cancer breast cells; format: cell-based, human; details: Homo sapiens; SRB, 48 h incubation, 184B5 non-cancer immortalised breast cells; read-out: GI50 184B5
Description: as §2, §3, §4, §5

[1] = test system: breast cancer and non-cancer breast cell lines; test: SRB antiproliferative comparison of breast cancer and non-cancer breast cell lines; format: cell-based, human; details: for antigrowth effect against cancer versus non-cancer cells (in words): three breast cancer lines vs 184B5 and MCF10A
Description: as §2, §3, §4, §5

MDA-MB231 = test: SRB antiproliferative assay, MDA-MB231; format: cell-based, human; details: SRB, 48 h incubation, MDA-MB231 triple-negative breast cancer cells, read-out: GI50 MDA-MB231
Description: as §2, §3, §4

melting point | GI50 (MDA-MB468; Homo sapiens, MDA-MB-468, 48 h) | GI50 (MDA-MB468) | GI50 (MCF7) | GI50 (MDA-MB231; Homo sapiens, MDA-MB-231, 48 h) | GI50 (MDA-MB231) | SMILES | mitochondrial and lysosomal volumes (in words) (MCF7 cells) | cells showing compromised plasma membrane phenotypes (MCF7 breast cancer cells; MCF7, of 500 cells examined, 24-h post treatment) | ethidium bromide uptake / plasma membrane integrity (in words) (MCF7 breast cancer cells; MCF7 cells, treated 48 h, vs Sham control) | GI50 (MCF10A) | GI50 (184B5) | antiproliferative effect on cancer cells higher than matching non-cancer breast cells ([1]; MDA-MB231 vs 184B5) | antiproliferative effect on cancer cells higher than matching non-cancer breast cells ([1]; MDA-MB468 vs MCF10A) | higher activity than the reference compounds cisplatin and CQ ([1]; breast cancer cell lines, GI50 comparison) | antigrowth/cell-killing activity higher on cancer than non-cancer cells ([1]; overall range, cancer vs non-cancer breast cells) | antigrowth effect against cancer versus non-cancer cells (in words) [1]
114 to 115 °C | 4.7 µM | 4.6 ± 0.6 µM | 4.5 ± 0.1 µM | 5.3 µM | 3 ± 0.1 µM | S=C(NCCN1CCOCC1)N1CCN(c2ccnc3cc(Cl)ccc23)CC1 [Compound 23, 4-(7-Chloro-quinolin-4-yl)-piperazine-1-carbothioic acid (2-morpholin-4-yl-ethyl)-amide] | substantial increases in mitochondrial and lysosomal volumes | 42.4 ± 4.8% | readily uptake ethidium bromide | 32.3 ± 0.8 µM | 34.4 ± 0.6 µM | 11 fold | 7 fold | 4-8 fold | 7-11 fold | much stronger activities against cancer than non-cancer cells
127 to 128 °C | 9.6 ± 0.9 µM |  | 7.5 ± 0.6 µM | 17.8 ± 1 µM |  | O=C(Nc1cccc2ccccc12)N1CCN(c2ccnc3cc(C(F)(F)F)ccc23)CC1 [Compound 15, 4-(7-Trifluoromethyl-quinolin-4-yl)-piperazine-1-carboxylic acid naphthalen-1-ylamide] |  |  |  | 11.1 ± 0.9 µM | 27.9 ± 1.7 µM |  |  |  |  | comparable against cancer and non-cancer cells
123 to 124 °C | 23.4 ± 0.9 µM |  | 3.8 ± 0.3 µM | 16.5 ± 1.2 µM |  | FC(F)(F)c1ccc(NC(=S)N2CCN(c3ccnc4cc(C(F)(F)F)ccc34)CC2)cc1 [Compound 26, 4-(7-Trifluoromethyl-quinolin-4-yl)-piperazine-1-carbothioic acid (4-trifluoromethyl-phenyl)-amide] |  |  |  | 10.7 ± 2 µM | 8.8 ± 0.6 µM |  |  |  |  | comparable against cancer and non-cancer cells
